# Source: article PMC11429909, “Protein Structure Inspired Discovery of a Novel Inducer of Anoikis in Human Melanoma” (Cancers, 2024)
# What was measured:
# [1] = tested on: human cord blood CD34+ cells; assay: Bone marrow stem cell (hematopoietic trilineage) colony formation assay; assay type: cell-based; settings: for Mean Number of Colonies, % of Control, 14 days / Mean Number of Colonies, % of Control, 8 days: normal bone marrow, compound at 40 µM, N = 2; for Mean Number of Colonies, % of Control, 8 days: total colonies at 8 days
# Protocol: (§1) Human hematopoietic stem cell trilineage colony formation assays were performed as previously described by us. Briefly, human cord blood CD34+ cells (catalog #: 70008.5) were purchased from StemCell Technology Inc. and seeded at 1 × 10^4 cells per 35 mm dish. Cells were cultured in MethoCult™ Express (StemCell Technologies, Inc. (Vancouver, BC, Canada)) semisolid media, per the manufacturer’s instructions, in the presence of compound or vehicle (for controls). Compounds were added at final concentrations matching those used in the initial growth assay screens. At eight days, colonies (i.e., groups of ≥10 cells) were counted. At fourteen days, individual colonies of erythroid burst-forming units (BFU-E), colony-forming unit granulocyte–macrophage (CFU-GM), and colony-forming unit granulocyte, erythrocyte, monocyte, and megakaryocyte (CFU-GEMM) were identified based on the manufacturers’ morphologic characterization criteria. Assays were run in replicates of N = 2, and some were run in replicates of N = 4, as denoted. The mean number of colonies was then determined and expressed as the percentage of controls. The effect of each compound on inhibiting the growth of cancer cells relative to its toxic effects on normal bone marrow was evaluated. This was carried out by comparing colonies at 8 days for each cancer cell line to that of bone marrow. This information was used to calculate the efficacy ratio, as follows: efficacy ratio = (percent of remaining cancer cell colonies)/(percent of remaining bone marrow colonies). This was performed for all compounds at 40 µM and for selected compounds at 5.7 µM, as denoted. For compounds nominated for second-level screens, bone marrow colony formation assays were also repeated. Compounds were added at final concentrations matching those used in the initial screens.
# In parallel with measuring growth inhibition of cancer cell growth, we measured the effect on human hematopoietic stem cells. Hematopoietic stem cells reside in the bone marrow and are the source of mature cells present in blood. Bone marrow is one of the most sensitive organs in the body to drug toxicity, and this is especially so for anticancer drugs, where bone marrow toxicity can approach 100% [78, 79, 80]. Bone marrow toxicity was measured by performing hematopoietic colony formation assays on human CD34+ stem cells. The stem cell nature of this assay permitted the assessment of trilineage colony formation: granulocytic (white blood cells), erythrocytic (red blood cells), and megakaryocytic (platelets), measured by the formation of CFU-GM, BFU-E, and CFU-GEMM colonies, respectively. Two measurements were taken. First, total colonies at eight days were measured, thereby matching the eight-day timeframe of cancer cell colony formation assays. Second, at fourteen days, individual colonies had differentiated, permitting quantification of each lineage.
# HT29 = assay: Eight-day colony formation assay, colon cancer HT29; assay type: cell-based, human; settings: 0.82 µM
# Protocol: Initial colony formation screening assays were conducted on all acquired compounds and examined at five different compound concentrations. Those meeting efficacy criteria underwent a second-level screen examining nine different compound concentrations. Eight-day colony formation assays of cancer cells were performed as described by us. Briefly, 0.5–1.0 × 10^3 cells were seeded into each well of a 12-well plate. Twenty-four hours later, the compound was added at the following final concentrations: 0 (DMSO-only control), 0.017, 0.12, 0.82, 5.7, and 40 µM. For each concentration, there were N = 2 replicates, i.e., 2 wells. Eight days later, plates were stained with trypan blue, visualized under light microscopy, and groups of three or more cells were scored as colonies. The mean number of colonies was then determined and expressed as the percentage of controls. […]
# In addition to screens, eight-day colony formation assays were conducted for certain experiments, as denoted. […] The IC50 values were calculated using nonlinear regression analysis. […] The IC50 values were determined using the dose–response inhibition function. […]
# Human hematopoietic stem cell trilineage colony formation assays were performed as previously described by us. […] At eight days, colonies (i.e., groups of ≥10 cells) were counted. […] The mean number of colonies was then determined and expressed as the percentage of controls. […]
# [2] = tested on: breast, prostate, colon, or lung cancer cell lines; assay: Eight-day colony formation assays, summary across the cancer cell line panel; assay type: cell-based, human; settings: for efficacy at concentrations below 40 µM (in words): 8-day colony formation
# Protocol: Initial colony formation screening assays were conducted on all acquired compounds and examined at five different compound concentrations. Those meeting efficacy criteria underwent a second-level screen examining nine different compound concentrations. Eight-day colony formation assays of cancer cells were performed as described by us. Briefly, 0.5–1.0 × 10^3 cells were seeded into each well of a 12-well plate. Twenty-four hours later, the compound was added at the following final concentrations: 0 (DMSO-only control), 0.017, 0.12, 0.82, 5.7, and 40 µM. For each concentration, there were N = 2 replicates, i.e., 2 wells. Eight days later, plates were stained with trypan blue, visualized under light microscopy, and groups of three or more cells were scored as colonies. The mean number of colonies was then determined and expressed as the percentage of controls. Second-level screens were performed on compounds inhibiting colony formation by greater than 50% at 40 µM in at least two cell lines. Second-level assays used the following final concentrations of compound: 0 (DMSO only), 0.0061, 0.018, 0.05, 0.16, 0.49, 1.48, 4.44, 13.33, and 40 µM. All compounds were stored under desiccated conditions in a sealed container at minus 20 °C upon arrival. One day prior to use, they were dissolved in DMSO, stored at minus 20 °C as stock solutions, thawed just prior to use, and not reused.
# as §1
# We sought to identify compounds that would inhibit the growth of cancer cells, but that also did so selectively. Inhibition of cancer cell growth is a highly sought after attribute of anticancer agents. This was assessed by measuring the ability of a compound to inhibit cell growth in eight-day colony formation assays and examining concentrations ranging from 0.017 to 40 µM. Breast, colon, lung, and prostate cancer are four of the most common types of cancer in the United States, are major causes of cancer cell death, and were examined. […]
# NCI-60 cell lines = assay: NCI-60 cell line screen; assay type: cell-based, human; settings: 48 h at 10 µM
# Protocol: The above findings support the importance of Dxr2 and FolC2 sites, and of Dxr2-017 and FolC2-001 compounds, respectively. The NCI-60 cell line screen evaluates compound growth inhibition and cell toxicity in a highly standardized manner across 60 different cell lines. Dxr2-017 and FolC2-001 were evaluated in this assay (Figure S6). NCI-60 screens evaluate cells treated for 48 h at 10 µM with a given compound. […] Of high interest, in the NCI-60 screen, Dxr2-017 had relatively high activity against melanoma cell lines, inducing cell death in five cell lines ranging from 25% to 65%, and inhibiting growth in four cell lines ranging from 76% to 96%. Its impact on cell death represented the most striking relative difference in response across cell lines.
Structure (SMILES),"Mean Number of Colonies, % of Control, 14 days [1]","Mean Number of Colonies, % of Control, 8 days [1]",other results
O=C(Cc1n[nH]c(=O)c2ccccc12)Nn1cnc2ccccc21 [TYLT-001],103 % of Control,117 % of Control,
Cc1[nH]c(=O)[nH]c1C(=O)CCCCC(=O)O [EPSP-023],114 % of Control,94 % of Control,
O=C(Nc1nnn[nH]1)c1cc(-c2ccccc2)nc2ccccc12 [PRT-051],119 % of Control,93 % of Control,
"O=c1[nH]cc(F)c(=O)[nH]1 [Compound 5FU, 5-fluorouracil, reference compound]",,,"effect on bone marrow colony formation (in words) ([1]; 0.82 µM): no effect on bone marrow; effect on bone marrow colony formation (in words) ([1]; 5.7 µM): profound suppressive effects; hematopoietic colony formation, % of the control ([1]; 5.7 µM, 8 days): 38 % of the control; effect on bone marrow colony formation (in words) ([1]; 40 µM): completely suppressed colony formation; efficacy ratio (cancer cell colonies / bone marrow colonies, 8 days) (HT29): 0.82"
O=C(CCc1c[nH]c2ccccc12)N1CCSc2ccccc21 [FolC2-005],101 % of Control,105 % of Control,efficacy at concentrations below 40 µM (in words) [2]: A similar phenomenon was observed
O=C(COC(=O)c1cccs1)c1ccc2[nH]c(=O)[nH]c2c1 [TYLT-003],94 % of Control,97 % of Control,
O=C(Cn1c(=O)oc2ccccc21)N1CCn2c1nc1ccccc12 [FolC2-001],87 % of Control,108 % of Control,"activity in the NCI-60 screen (in words) (NCI-60 cell lines): against H226; efficacy ratio, mean ± SEM over cell lines with ratio below 0.5 ([2]; 40 µM, 8 days): 0.29 ± 0.09; number of cell lines with efficacy ratio below 0.5 ([2]; 40 µM, 8 days): five; efficacy at concentrations below 40 µM (in words) [2]: rapidly dropped off below 40 µM"
Cc1nnsc1C(=O)OCCCn1c(=O)[nH]c2ccccc21 [Dxr2-001],93 % of Control,109 % of Control,
c1ccc(CCc2n[nH]c(-c3ccccn3)n2)cc1 [FolC1-031],85 % of Control,80 % of Control,
